In patent US20130274838A1, “OPTICAL CONTROL OF CARDIAC FUNCTION” (The Research Foundation of State University of New York, priority 2010, published 2013):

Assays:
[1] = test system: cell pairs of adult canine ventricular myocytes and HEK-ChR2 (gap junctional coupling); assay: Carbenoxolone uncoupling of tandem cell units, dual patch clamp with optical pacing; format: cell-based; conditions: 200 μM carbenoxolone perfusion, light-triggered action potentials before, during and after washout (FIG. 5f)
Experimental: Dual patch clamp experiments were performed within 48 hours after plating. Briefly, experiments were carried out on heterologous (HEK-ChR2— canine myocyte) cell pairs within 48 hours after plating, as described previously. A dual whole-cell voltage-clamp method was used to control and record the membrane potential of both cells and to measure associated membrane and junctional currents. Each cell of a pair was voltage clamped at the same potential by two separate patch clamp amplifiers (Axopatch 200, Axon Instruments). To record junctional conductance, brief voltage steps (±10 mV, 400 ms) were applied to one cell of a pair, whereas the other cell was held at constant voltage and the junctional currents were recorded from the unstepped cell. Membrane and action potentials were recorded in current-clamp mode. For electrical recordings, glass coverslips with adherent cells were transferred to an experimental chamber mounted on the stage of an inverted microscope (Olympus-IX71) equipped with a fluorescence imaging system. […] When filled, the resistance of the pipettes measured 1-4MΩ. […] Contractility movies were recorded in response to optical pacing before and during administration of carbenoxolone, and upon washout to assess the role of gap junctional coupling in the functionality of the tandem cell unit.

[2] = test system: cardiac syncytium of neonatal rat cardiomyocytes and HEK-ChR2 (gap junctional coupling); assay: Carbenoxolone uncoupling in cardiac syncytium, contractility under optical pacing; format: cell-based; conditions: 200 μM carbenoxolone for 20 min without perfusion, contractility in response to optical pacing
Experimental: Carbenoxolone, CBX, (Sigma), a gap junctional uncoupler, was used at a concentration 200 μM in the dual-patch experiments with canine cardiomyocytes and HEK-ChR2 or in the cardiac syncytium of neonatal rat cardiomyocytes and HEK-ChR2. In the latter case, CBX was applied for 20 min (without perfusion) in the co-cultures of HEK-ChR2 cells and cardiomyocytes. Contractility movies were recorded in response to optical pacing before and during administration of carbenoxolone, and upon washout to assess the role of gap junctional coupling in the functionality of the tandem cell unit. Microscopic imaging for confirmation of gene expression or for documenting contractions by optical excitation was done with the Olympus FluoView™ FV1000 confocal system at room temperature. An EMCCD camera (ImagEM EMCCD camera from Hamamatsu, Bridgewater, N.J.) attached to the Olympus FluoView™ FV1000 microscope was used to record contractility movies at 20 fps with 60× oil lens (NA=1.42) using SlideBook 5 software (Intelligent Imaging Innovations, Denver, Colo.). In addition, contractility response was also documented by automatic optical tracking of cell length at 250 Hz using an IonOptix videosystem (IonOptix) attached to a Nikon TE2000 inverted microscope.

CC1(C)[C@@H](OC(=O)CCC(=O)O)CC[C@]2(C)[C@H]3C(=O)C=C4[C@@H]5C[C@@](C)(C(=O)O)CC[C@]5(C)CC[C@@]4(C)[C@]3(C)CC[C@@H]12 [cabenoxolone, carbenoxolone]
effect of pharmacological uncoupling on light-sensitivity of the myocytes in the TCUs [1]: abolished the light-sensitivity of the myocytes in the TCUs
effect of pharmacological uncoupling on light-sensitivity of the myocytes in the TCUs [2]: abolished the light-sensitivity of the myocytes in the TCUs
